Results taken from publication PMC9306752, “Sandacrabins – Structurally Unique Antiviral RNA Polymerase Inhibitors from a Rare Myxobacterium” (Chemistry (Weinheim an Der Bergstrasse, Germany), 2022).
≈ marks a conversion by molar mass, not a printed value. Where two headings read alike, the source gives them in different places.

What was measured:
[1] = test system: Candida albicans DSM-1665; assay: Antimicrobial MIC determination, serial dilution in 96 well plates; format: cell-based; conditions: DSM1665
[2] = test system: Escherichia coli ΔacrB JW0451-2; assay: as above; format: cell-based; conditions: 24 h
[3] = test system: Escherichia coli BW25113; assay: as above; format: cell-based; conditions: 24 h at 37 °C
[4] = molecular target: SARS-CoV-2 RdRp complex (Nsp7, Nsp8, Nsp12) (Severe acute respiratory syndrome coronavirus 2, UniProt P0DTD1); assay: biochemical; conditions: full template-length RNA product
[5] = test system: Pseudomonas aeruginosa PA14; assay: Antimicrobial MIC determination, serial dilution in 96 well plates; format: cell-based; conditions: 24 h at 37 °C
[6] = test system: U-2 OS cells; assay: MTT assay; format: cell-based; conditions: Homo sapiens, U2OS, 120 h
[7] = test system: Pichia anomala; assay: Antimicrobial MIC determination, serial dilution in 96 well plates; format: cell-based; conditions: Hansenula anomala
[8] = test system: HCoV229E; assay: cells; format: cell-based, human pathogenic coronavirus HCoV229E; conditions: for IC50: HCoV229E replication in Huh-7.5 cells; for factor between cytotoxic activity (IC50 Huh-7.5) and antiviral activity (IC50 HCoV229E): IC50 Huh-7.5 versus IC50 HCoV229E
[9] = test system: Staphylococcus aureus Newman; assay: Antimicrobial MIC determination, serial dilution in 96 well plates; format: cell-based; conditions: 24 h at 37 °C
[10] = test system: Huh-7.5 host cells; conditions: Huh-7.5 host cells in the antiviral assay
[11] = test system: Acyrthosiphon pisum; assay: Insecticidal activity, direct application to the posterior segment of adult insects; format: in vivo; conditions: for Death rate at 0.5 μg/insect: adult A. pisum, 0.5 μg/insect in acetone, survival after one hour; for Death rate at 0.5 μg/insect / Death rate: 20 insects; for Death rate: positive control, 0.5 microliter of 0.01 μg/mL in acetone, after one hour
[12] = test system: Bacillus subtilis DSM-10; assay: Antimicrobial MIC determination, serial dilution in 96 well plates; format: cell-based
[13] = test system: Huh 7.5 cells; assay: MTT assay, non-infected cells; format: cell-based; conditions: Homo sapiens, Huh7.5, 120 h
[14] = test system: Mycobacterium smegmatis mc2 155; assay: Antimicrobial MIC determination, serial dilution in 96 well plates; format: cell-based; conditions: Mycolicibacterium smegmatis, MC2155
[15] = Homo sapiens, Huh7.5, 48 h at 33 °C
[16] = DSM10, 24 h at 37 °C, read-out: MIC
[17] = non-infected Huh 7.5 cells, 5 days at 37 °C

| SMILES | MIC [1] | MIC [2] | MIC [3] | IC50 [4] | MIC [5] | IC50 ([6]; 5 days at 37 °C) | MIC [7] | IC50 [8, 15] | factor between cytotoxic activity (IC50 Huh-7.5) and antiviral activity (IC50 HCoV229E) [8] | MIC [9] | Death rate at 0.5 μg/insect [11] | MIC ([12]; 24 h at 37 °C) | MIC [12, 16] | IC50 [13, 17] | MIC [14] | further results |
| --- | --- | --- | --- | --- | --- | --- | --- | --- | --- | --- | --- | --- | --- | --- | --- | --- |
| CC(C)=CCC/C(C)=C/CC/C(C)=C/Cn1c(C)[n+](C/C=C(\C)CC/C=C(\C)CCC=C(C)C)c2cc(C)c(C)cc21 [Sandacrabin C] | > 64 µg/mL | > 64 µg/mL | > 64 µg/mL | 6.8 µM | > 64 µg/mL | 1.22 µM | > 64 µg/mL | 0.34 µM | 11 fold | 64 to 128 µg/mL | 90% | 128 µg/mL | 128 µg/mL | 3.61 µM | > 64 µg/mL | cytotoxic effects on host cells (in words) [10]: cytotoxic effects at the highest test concentration |
| CC(C)=CCC/C(C)=C/CC/C(C)=C/Cn1cnc2cc(C)c(C)cc21 [Sandacrabin D] | > 64 µg/mL | > 64 µg/mL | > 64 µg/mL | 85 µM | > 64 µg/mL | 16.9 µM | > 64 µg/mL | 1.64 µM | 3–4 fold | 64 µg/mL (≈ 183 µM) | 100% | 64 µg/mL (≈ 183 µM) | 64 µg/mL (≈ 183 µM) | 4.63 µM | 64 µg/mL (≈ 183 µM) | – |
| CN[C@H](CC(C)C)C(=O)N[C@H]1C(=O)N[C@@H](CC(N)=O)C(=O)N[C@H]2C(=O)N[C@H]3C(=O)N[C@H](C(=O)N[C@H](C(=O)O)c4cc(O)cc(O)c4-c4cc3ccc4O)[C@H](O)c3ccc(c(Cl)c3)Oc3cc2cc(c3O[C@@H]2O[C@H](CO)[C@@H](O)[C@H](O)[C@H]2O[C@H]2C[C@](C)(N)[C@H](O)[C@H](C)O2)Oc2ccc(cc2Cl)[C@H]1O [Vancomycin, reference compound] | – | – | – | – | – | – | – | – | – | – | – | – | 0.1 to 0.2 µg/mL (≈ 0.069 to 0.138 µM) | – | – | – |
| O=[N+]([O-])NC1=NCCN1Cc1ccc(Cl)nc1 [Imidacloprid, reference compound] | – | – | – | – | – | – | – | – | – | – | – | – | – | – | – | Death rate [11]: 100 (Imidacloprid) %; Death rate ([11]; listed as imidacloprid): 100% |
| CC(C)=CCC/C(C)=C/CC/C(C)=C/Cn1c[n+](C/C=C(\C)CC/C=C(\C)CCC=C(C)C)c2cc(C)c(C)cc21 [Sandacrabin B] | > 64 µg/mL | > 64 µg/mL | > 64 µg/mL | 3.5 µM | > 64 µg/mL | 0.51 µM | > 64 µg/mL | 0.18 µM | 3–4 fold | 64 to 128 µg/mL | 100% | 64 µg/mL | 64 µg/mL | 0.7 µM | > 64 µg/mL | cytotoxic effects on host cells (in words) [10]: cytotoxic effects at the highest test concentration |
| CC(C)=CCC/C(C)=C/CC/C(C)=C/Cn1c(C)nc2cc(C)c(C)cc21 [Sandacrabin E] | > 64 µg/mL | > 64 µg/mL | > 64 µg/mL | 43 µM | > 64 µg/mL | 13.7 µM | > 64 µg/mL | 1.91 µM | 3–4 fold | 64 µg/mL (≈ 176 µM) | 90% | 64 µg/mL (≈ 176 µM) | 64 µg/mL (≈ 176 µM) | 6.72 µM | 64 µg/mL (≈ 176 µM) | – |
| COc1cccc2c1C(=O)c1c(O)c3c(c(O)c1C2=O)C[C@@](O)(C(=O)CO)C[C@@H]3O[C@H]1C[C@H](N)[C@H](O)[C@H](C)O1 [Doxorubicin, reference compound] | – | – | – | – | – | – | – | – | – | – | – | – | – | – | – | IC50 ([6]; positive control, 5 days): 0.015 µM; IC50 ([13]; positive control, Huh 7.5 cells, 5 days): 0.037 µM |
| CC(C)=CCC/C(C)=C/CC/C(C)=C/Cn1c(/C=C(\C)CC/C=C(\C)CCC=C(C)C)nc2cc(C)c(C)cc21 [Sandacrabin A] | > 64 µg/mL | > 64 µg/mL | > 64 µg/mL | 108 µM | > 64 µg/mL | > 37 µM | > 64 µg/mL | > 10 µM | – | 128 µg/mL (≈ 237 µM) | 10% | 32 µg/mL (≈ 59.2 µM) | 32 µg/mL (≈ 59.2 µM) | > 37 µM | > 64 µg/mL | antiviral activity, effect on viral replication (in words) ([8]; cells infected with HCoV229E): did not show any effect on viral replication; minimal insecticidal concentration ([11]; dilution series 5–0.05 μg per insect, test group of three insects): > 5 μg/insect |
| CCC(CC)COC(=O)[C@H](C)N[P@](=O)(OC[C@H]1O[C@@](C#N)(c2ccc3c(N)ncnn23)[C@H](O)[C@@H]1O)Oc1ccccc1 [Remdesivir, reference compound] | – | – | – | – | – | – | – | – | – | – | – | – | – | – | – | IC50 ([8]; positive control, 48 h): 0.0056 µM |
